What is called inhibition is the percentage by which the read-out fell short of the control.

The target in this assay is T1, L191A/S15V-hP2X3R (Homo sapiens, UniProt P56373, L191A/S15V).
T1 construct: expressed in transfected cells; host or cells: Xenopus laevis oocytes (cRNA injection)
T1 sequence (P56373 1-397 S15V/L191A): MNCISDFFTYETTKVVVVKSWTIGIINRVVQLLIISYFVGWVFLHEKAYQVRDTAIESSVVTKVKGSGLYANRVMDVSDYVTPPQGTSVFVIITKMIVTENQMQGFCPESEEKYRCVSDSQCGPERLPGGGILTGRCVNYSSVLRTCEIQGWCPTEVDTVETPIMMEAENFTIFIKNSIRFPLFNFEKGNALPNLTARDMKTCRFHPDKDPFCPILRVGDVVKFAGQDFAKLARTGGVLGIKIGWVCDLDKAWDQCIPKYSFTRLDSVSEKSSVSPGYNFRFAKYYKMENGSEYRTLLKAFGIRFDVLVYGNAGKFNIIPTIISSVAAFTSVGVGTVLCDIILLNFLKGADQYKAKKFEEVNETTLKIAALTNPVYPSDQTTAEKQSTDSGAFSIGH
The assay is described as follows: TEVC of ATP-induced currents, L191A/S15V-hP2X3R mutant in X. laevis oocytes. It is filed as cell-based. The protocol: Ion currents mediated by P2X receptors were evoked by the indicated concentration of ATP or α,β-meATP and were recorded 1 or 2 days after cRNA injection at ambient temperature at a holding potential of −60 mV by two-electrode voltage clamp (TEVC) as previously described ([Hausmann et al., 2006]). Calcium-free ORi^− solution (90 mM NaCl, 1 mM KCl, 2 mM MgCl2, 10 mM HEPES, pH 7.4) was used to avoid bias due to calcium-activated chloride channels (CaCC) endogenously expressed in X. laevis oocytes ([Miledi, 1982]; [Methfessel et al., 1986]). For recordings of wt-hP2X7R, the composition of the ORi^− solution was modified according to protocols described previously and contained 100 mM NaCl, 2.5 mM KCl, 1 mM MgCl2, 5 mM HEPES, pH 7.4 ([Klapperstück et al., 2000]). The oocytes were continuously superfused with ORi^− by gravity flow (5–10 ml/min). The agonists ATP or α,β-meATP and the investigated NSAIDs were diluted in ORi^− on the day of the recording. The following agonist concentrations were used for the different P2X subtypes: 1 μM ATP (hP2X1R mutant, hP2X3R, rP2X3R, S^15V-hP2X3R, and S^15V-rP2X3R); 10 μM ATP (hP2X2R and hP2X4R); 300 μM free ATP^4- (hP2X7R); and 1 μM α,β-meATP (hP2X2/3R). […]
In the case of fast-desensitizing P2XR subtypes (P2X1R and P2X3R), ATP is applied five times in repetition, and the ATP-induced current amplitude in the presence (after pre-incubation) of the antagonist (fourth application) is compared to the arithmetic mean of flanking control ATP-induced current amplitudes in the absence of the antagonist (third and fifth ATP application). […] The correction factor was calculated as the ratio of the fourth ATP-induced current amplitude to the third amplitude (Eq. 3) when the experiment was performed in the absence of the antagonist. […] Since the magnitude of the run-down varies from day to day and batch to batch of oocytes, the correction factor was determined on each day of the experiments and was calculated as the arithmetic mean of several recordings (at least 3–5 and on average 5) on each day. […]

For the molecule `O=C(O)Cc1ccccc1Nc1c(Cl)cccc1Cl` [Diclofenac, diclofenac], the inhibition at 3 µM (read-out: % inhibition of 10 µM ATP-induced currents by 3 µM diclofenac) came to 7.7%. For the setting “read-out: % inhibition of 10 µM ATP-induced currents by 10 µM diclofenac”, the inhibition at 10 µM came to 18.4%. Also, the inhibition at 30 µM (read-out: % inhibition of 10 µM ATP-induced currents by 30 µM diclofenac) was 37.3%.

For the origin of these results see PMC10060569 (Frontiers in Pharmacology, 2023).
